Assay results as given in patent US20130053430A1, “MODULATION OF CETP EXPRESSION” (Isis Pharmaceuticals, Inc., priority 2010, published 2013).
e = 2'-O-(2-methoxyethyl) (MOE); d = 2'-deoxy (DNA)

What was measured:
[1] = test system: ApoA1; test: Liver ApoA1 mRNA expression (Example 9); assay type: in vivo, mice; details: s.c. 6 weeks; for Percent inhibition of liver mRNA expression, ApoA1: percentage increase or decrease compared to PBS control
Experimental: (§1) Another group received subcutaneous injections of control oligonucleotide ISIS 141923 at a dose of 50 mg/kg/week for 6 weeks. One group of mice received subcutaneous injections of PBS for 6 weeks. The PBS-injected group served as the control group to which treatment groups were compared.
Liver RNA was isolated for real-time PCR analysis of ABCA1, ApoAI, and SR-B1. ATP-binding cassette transporter ABCA1 (member 1 of human transporter sub-family ABCA), also known as the cholesterol efflux regulatory protein (CERP) is a protein which in humans is encoded by the ABCA1 gene (Luciani, M. F. et al., Genomics. 1994. 21: 150-9). This transporter is a major regulator of cellular cholesterol and phospholipid homeostasis. Apolipoprotein A-I is a protein that in humans is encoded by the APOA1 gene (Breslow, J. L. et al., Proc. Natl. Acad. Sci. USA 1982. 79: 6861-5). Apolipoprotein A-I is the major protein component of HDL in plasma. The protein promotes cholesterol efflux from tissues to the liver for excretion. Scavenger receptor class B, type I (SR-BI) is an integral membrane protein found in numerous cell types/tissues, including the liver and adrenal (Acton, S. L. et al., J. Biol. Chem. 1994. 269: 21003-21009). It is best known for its role in facilitating the uptake of cholesteryl esters from high-density lipoproteins in the liver. Therefore, all three genes have a role in HDL regulation.
The primer probe set RTS1204 (forward sequence […], designated herein as SEQ ID NO: 122, reverse sequence […], designated herein as SEQ ID NO: 123, probe sequence AGGCCCAGACCTGTAAAGGCGAAGX, with X a fluorophore, designated herein as SEQ ID NO: 124) was used to measure abca1 levels. The primer probe set RTS14737 (forward sequence […], designated herein as SEQ ID NO: 125, reverse sequence […], designated herein as SEQ ID NO: 126, probe sequence CTGCAGGAACGGCTGGGCCCX, with X a fluorophore, designated herein as SEQ ID NO: 127) was used to measure apoA1 levels. The primer probe set mSRB-1 (forward sequence […], designated herein as SEQ ID NO: 128, reverse sequence ATGCGACTTGTCAGGCTGG, designated herein as SEQ ID NO: 129, probe sequence CGTGGAGAACCGCAGCCTCCATTX, with X a fluorophore, designated herein as SEQ ID NO: 130) was used to measure sr-b1 levels. The results are presented in Table 44 as percentage increase or decrease in the respective expression levels compared to the PBS control. Both primer probe sets produced similar results. The RNA expression levels were normalized to murine Cyclophilin. Treatment with ISIS 349517 caused an increase in ApoA1 and SR-B1 levels.

[2] = test system: CETP activity; test: CETP activity assay kit, dose response (Example 9); assay type: in vivo, human; details: huCETP transgenic mice, Western diet, s.c. 6 weeks
Experimental: as §1
CETP activity levels were measured using a CETP activity assay kit (Roar Biomedical Inc.).

[3] = test system: CETP protein; test: Plasma CETP protein by ELISA in huCETP transgenic mice (Example 5); assay type: in vivo, human; details: normal chow, 50 mg/kg i.p. twice per week for 6 weeks, compared to PBS control
Experimental: The mice were divided into five treatment groups. The first four groups received intraperitoneal injections of ISIS 349511, ISIS 349512, ISIS 349515, or ISIS 349517 at a dose of 50 mg/kg twice per week for 6 weeks. The fifth group received intraperitoneal injections of saline twice weekly for 6 weeks.
Plasma levels of CETP protein were measured by ELISA (Alpco, N.H.). […] The results are expressed as percentage inhibition compared to the PBS control.

[4] = test system: human CETP mRNA; test: Dose-dependent antisense inhibition of human CETP in SW872 liposarcoma cells (Example 3); assay type: cell-based; details: Lipofectin, ~16 hours (Example 3)
Experimental: ISIS 17291 ([…], 6-8-6 MOE (SEQ ID NO: 115)), ISIS 17302 ([…], 6-8-6 MOE (SEQ ID NO: 116)), and ISIS 17305 ([…], 6-8-6 MOE (SEQ ID NO: 117), first disclosed in U.S. Ser. No. 11/031,827 (incorporated by reference herein), were also tested under the same conditions. Cells were plated at a density of 50,000 cells per well in a 24-well plate and transfected using Lipofectin reagent with 50 nM, 150 nM, and 300 nM concentrations of each antisense oligonucleotide. After approximately 16 hours, RNA was isolated from the cells and CETP mRNA levels were measured by quantitative real-time PCR. CETP mRNA levels were normalized to total RNA content, as measured by the house-keeping gene, GAPDH mRNA levels. Results are presented in Table 5 as percent inhibition of CETP, relative to untreated control cells.

[5] = mouse, in vivo, sc, 25 mg/kg
Description: The saline-injected group served as the control group to which oligonucleotide-treated groups were compared. […] This group served a negative control for the effects of the antisense oligonucleotides against CETP. The groups are further described in Table 27, and are designated letters A-F, by which they will be referred from henceforth.

[6] = test system: CETP protein; test: Plasma CETP protein by ELISA (Example 8); assay type: in vivo, human; details: huCETP transgenic mice, Western diet; 25 mg/kg s.c. twice per week for 2 weeks; relative to PBS control
Experimental: (§2) The mice were divided into two groups of 4-6 mice each.
Plasma CETP protein levels were measured by ELISA (Alpco). […] The results are expressed as percent inhibition of CETP protein, relative to the PBS control.

[7] = test system: CETP activity; test: CETP activity assay kit (Example 8); assay type: in vivo, human; details: huCETP transgenic mice, Western diet; 25 mg/kg s.c. twice per week for 2 weeks; relative to PBS control
Experimental: as §2
CETP activity levels were measured using a CETP activity assay kit (Roar Biomedical Inc., New York, N.Y.). […] The results are expressed as percent inhibition of CETP activity, relative to the PBS control.

ISIS 141923: CCTTCCCTGAAGGTTCCTCC, 5-10-5 MOE gapmer, a control oligonucleotide which has no known murine target (sugars from the 5' end e5 d10 e5, backbone and methylation of C not given here) [reference compound]
Percent inhibition of liver mRNA expression, ApoA1 ([1]; Dose 50 mg/kg/wk): −50% | Percent inhibition of CETP activity ([2]; Dose 50 mg/kg/wk): 2%

ISIS 349511: 5-10-5 MOE gapmer CCCGACCTCCTTGGAGACTT (sugars from the 5' end e5 d10 e5, backbone and methylation of C not given here)
Percent inhibition of plasma CETP protein levels [3]: 75%

ISIS 349517: 5-10-5 MOE gapmer CAGCACTTTAATGCCAGTGG (sugars from the 5' end e5 d10 e5, backbone and methylation of C not given here)
percent inhibition of CETP ([4]; 50 nM): 76% | percent inhibition of CETP ([4]; 150 nM): 91% | percent inhibition of CETP ([4]; 300 nM): 93% | Percent inhibition of plasma CETP protein levels [3]: 86% | Organ weights, Kidney [5]: 0.39 | Organ weights, Liver [5]: 1.51 | Organ weights, Spleen [5]: 0.09 | Percent inhibition of plasma CETP protein levels [6]: 96% | Percent inhibition of CETP activity [7]: 73% | ApoA1 levels (liver mRNA) ([1]; huCETP transgenic mice, Western diet): increase | Percent inhibition of liver mRNA expression, ApoA1 ([1]; Dose 1.5 mg/kg/wk): −34% | Percent inhibition of liver mRNA expression, ApoA1 ([1]; Dose 5 mg/kg/wk): −13% | Percent inhibition of liver mRNA expression, ApoA1 ([1]; Dose 15 mg/kg/wk): +52% | Percent inhibition of liver mRNA expression, ApoA1 ([1]; Dose 50 mg/kg/wk): +136% | Percent inhibition of CETP activity ([2]; Dose 1.5 mg/kg/wk): 33% | Percent inhibition of CETP activity ([2]; Dose 5 mg/kg/wk): 59% | Percent inhibition of CETP activity ([2]; Dose 15 mg/kg/wk): 76% | Percent inhibition of CETP activity ([2]; Dose 50 mg/kg/wk): 77%
